We go through 30 molecules from ChEMBL document CHEMBL5537122, “Design, synthesis, and biological evaluation of 4-(2-fluorophenoxy)-7-methoxyquinazoline derivatives as dual EGFR/c-Met inhibitors for the treatment of NSCLC” (Eur J Med Chem, 2024).

Where only a bound is given, the exact number is not on record here.

As a reminder, the IC50 is the concentration that inhibits the measured activity by half.

The target in experiment [1] is Epidermal growth factor receptor (Homo sapiens, UniProt P00533, L858R). Put plainly: biochemical.
Epidermal growth factor receptor (Homo sapiens, UniProt P00533, L858R), sequence (P00533 25-1210 L858R limits assumed): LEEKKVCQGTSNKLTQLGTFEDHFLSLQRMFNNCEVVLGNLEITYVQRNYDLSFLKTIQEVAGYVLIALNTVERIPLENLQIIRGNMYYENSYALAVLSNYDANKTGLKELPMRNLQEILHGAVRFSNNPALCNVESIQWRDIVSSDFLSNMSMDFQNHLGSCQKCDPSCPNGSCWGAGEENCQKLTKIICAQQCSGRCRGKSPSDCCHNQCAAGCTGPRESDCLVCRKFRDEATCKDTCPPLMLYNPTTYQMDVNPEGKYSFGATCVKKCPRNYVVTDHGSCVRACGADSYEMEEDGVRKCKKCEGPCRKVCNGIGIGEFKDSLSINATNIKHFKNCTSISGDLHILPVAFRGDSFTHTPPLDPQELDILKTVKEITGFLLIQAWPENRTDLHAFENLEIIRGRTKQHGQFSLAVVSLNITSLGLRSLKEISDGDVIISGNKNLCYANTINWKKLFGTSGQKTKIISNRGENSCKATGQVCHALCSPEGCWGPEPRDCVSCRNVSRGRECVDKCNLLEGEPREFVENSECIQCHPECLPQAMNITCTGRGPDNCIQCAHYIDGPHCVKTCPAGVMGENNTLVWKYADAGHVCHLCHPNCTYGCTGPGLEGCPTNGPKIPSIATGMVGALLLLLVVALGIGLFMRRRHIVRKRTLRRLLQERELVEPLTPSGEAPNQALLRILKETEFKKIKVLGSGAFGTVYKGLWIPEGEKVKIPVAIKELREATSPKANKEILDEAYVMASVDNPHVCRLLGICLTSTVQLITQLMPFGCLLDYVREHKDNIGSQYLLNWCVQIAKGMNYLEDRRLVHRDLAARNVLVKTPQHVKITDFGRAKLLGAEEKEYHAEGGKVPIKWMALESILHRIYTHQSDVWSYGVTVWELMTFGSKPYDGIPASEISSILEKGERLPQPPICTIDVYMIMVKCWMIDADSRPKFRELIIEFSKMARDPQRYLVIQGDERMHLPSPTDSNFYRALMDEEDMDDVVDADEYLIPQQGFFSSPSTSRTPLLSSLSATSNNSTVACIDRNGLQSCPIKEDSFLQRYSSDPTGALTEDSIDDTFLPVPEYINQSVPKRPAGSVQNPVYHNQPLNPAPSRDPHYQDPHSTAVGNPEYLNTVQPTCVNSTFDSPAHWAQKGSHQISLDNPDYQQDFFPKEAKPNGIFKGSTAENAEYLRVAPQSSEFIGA
For experiment [2], the target named is Hepatocyte growth factor receptor (Homo sapiens, UniProt P08581). Description: biochemical.
Hepatocyte growth factor receptor, sequence (P08581 whole entry): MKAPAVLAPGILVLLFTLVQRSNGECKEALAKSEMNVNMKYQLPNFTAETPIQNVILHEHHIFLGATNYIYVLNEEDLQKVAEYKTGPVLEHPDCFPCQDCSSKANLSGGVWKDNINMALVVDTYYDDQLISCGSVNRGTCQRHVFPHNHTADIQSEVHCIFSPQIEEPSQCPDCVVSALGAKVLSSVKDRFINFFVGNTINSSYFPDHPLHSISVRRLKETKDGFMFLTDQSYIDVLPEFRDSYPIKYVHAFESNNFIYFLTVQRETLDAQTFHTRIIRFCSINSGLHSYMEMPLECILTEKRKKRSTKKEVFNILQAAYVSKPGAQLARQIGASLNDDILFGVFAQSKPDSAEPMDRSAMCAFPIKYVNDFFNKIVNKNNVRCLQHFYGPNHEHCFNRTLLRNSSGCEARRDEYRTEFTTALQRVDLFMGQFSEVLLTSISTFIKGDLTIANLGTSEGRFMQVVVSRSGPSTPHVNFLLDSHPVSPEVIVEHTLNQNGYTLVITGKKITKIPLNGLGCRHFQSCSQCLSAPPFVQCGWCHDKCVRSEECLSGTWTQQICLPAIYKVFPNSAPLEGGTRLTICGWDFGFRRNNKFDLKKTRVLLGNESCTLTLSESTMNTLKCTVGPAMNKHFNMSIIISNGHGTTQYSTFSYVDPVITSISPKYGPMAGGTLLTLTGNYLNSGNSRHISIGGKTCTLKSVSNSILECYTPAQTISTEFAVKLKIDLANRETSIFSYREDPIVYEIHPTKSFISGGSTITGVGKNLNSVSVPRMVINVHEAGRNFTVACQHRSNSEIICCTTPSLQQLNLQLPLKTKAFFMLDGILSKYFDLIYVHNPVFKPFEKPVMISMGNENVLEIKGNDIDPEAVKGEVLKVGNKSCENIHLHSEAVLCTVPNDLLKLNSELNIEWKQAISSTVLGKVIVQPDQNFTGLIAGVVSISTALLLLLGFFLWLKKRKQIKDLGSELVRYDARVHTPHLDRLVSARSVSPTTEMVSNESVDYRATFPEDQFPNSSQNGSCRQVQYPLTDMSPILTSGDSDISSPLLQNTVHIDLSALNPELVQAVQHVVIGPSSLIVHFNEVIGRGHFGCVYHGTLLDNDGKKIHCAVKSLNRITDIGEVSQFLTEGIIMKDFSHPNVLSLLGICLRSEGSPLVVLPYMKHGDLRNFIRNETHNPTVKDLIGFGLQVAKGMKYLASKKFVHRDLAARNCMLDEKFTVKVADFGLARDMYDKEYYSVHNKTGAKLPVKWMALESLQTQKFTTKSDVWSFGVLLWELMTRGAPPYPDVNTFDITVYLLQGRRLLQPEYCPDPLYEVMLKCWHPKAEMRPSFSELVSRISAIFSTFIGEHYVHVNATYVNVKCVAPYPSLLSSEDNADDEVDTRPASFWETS
Description: Inhibition of N-terminal GST tagged human recombinant c-Met (956 to end residues) expressed in baculovirus infected Sf9 cells using Poly (4:1 Glu, Tyr) as substrate incubated for 60 mins in presence of ATP by ADP-Glo luminescent assay
The next experiment deals with A549. Put plainly: Antiproliferative activity against human A549 cells overexpressing c-Met and EGFR assessed as reduction in cell viability incubated for 72 hrs by MTT assay. The format is functional, cell-based. The settings on record: A549, 72 h.
For experiment [3], the target named is Epidermal growth factor receptor (Homo sapiens, UniProt P00533). Put plainly: biochemical.
Epidermal growth factor receptor (Homo sapiens, UniProt P00533), sequence (P00533 whole entry): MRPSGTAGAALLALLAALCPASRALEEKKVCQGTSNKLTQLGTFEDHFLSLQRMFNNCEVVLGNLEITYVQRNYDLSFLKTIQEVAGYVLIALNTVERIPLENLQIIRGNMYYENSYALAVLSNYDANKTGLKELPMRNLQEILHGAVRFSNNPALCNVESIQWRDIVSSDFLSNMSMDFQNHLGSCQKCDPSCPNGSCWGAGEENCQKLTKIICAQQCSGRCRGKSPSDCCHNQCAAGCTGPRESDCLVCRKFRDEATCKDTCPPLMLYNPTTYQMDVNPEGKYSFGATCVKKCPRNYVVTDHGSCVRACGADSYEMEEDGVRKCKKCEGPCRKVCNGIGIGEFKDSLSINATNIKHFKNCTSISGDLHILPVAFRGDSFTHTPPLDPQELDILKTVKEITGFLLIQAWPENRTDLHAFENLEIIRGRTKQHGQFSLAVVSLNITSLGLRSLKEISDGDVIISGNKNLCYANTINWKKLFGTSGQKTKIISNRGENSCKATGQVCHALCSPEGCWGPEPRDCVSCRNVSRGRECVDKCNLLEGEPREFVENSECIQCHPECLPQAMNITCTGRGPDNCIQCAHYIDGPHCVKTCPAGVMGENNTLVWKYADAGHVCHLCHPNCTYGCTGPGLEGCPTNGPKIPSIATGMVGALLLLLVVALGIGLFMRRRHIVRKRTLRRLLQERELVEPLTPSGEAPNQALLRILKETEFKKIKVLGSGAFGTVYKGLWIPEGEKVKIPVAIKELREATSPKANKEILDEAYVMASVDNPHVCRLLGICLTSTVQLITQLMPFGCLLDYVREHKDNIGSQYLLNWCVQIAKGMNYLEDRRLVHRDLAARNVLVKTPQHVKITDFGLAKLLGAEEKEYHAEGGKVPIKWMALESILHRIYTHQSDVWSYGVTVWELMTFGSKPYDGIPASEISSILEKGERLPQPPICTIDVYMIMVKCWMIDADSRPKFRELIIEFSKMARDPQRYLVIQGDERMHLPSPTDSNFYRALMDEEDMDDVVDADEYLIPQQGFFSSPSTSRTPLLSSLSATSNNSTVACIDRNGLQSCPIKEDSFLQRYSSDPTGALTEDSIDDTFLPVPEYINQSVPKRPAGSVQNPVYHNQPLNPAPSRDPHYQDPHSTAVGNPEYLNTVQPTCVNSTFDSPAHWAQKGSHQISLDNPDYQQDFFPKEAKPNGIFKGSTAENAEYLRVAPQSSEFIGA
Description: Inhibition of N-terminal GST tagged human recombinant EGFR (695 to end residues) expressed in baculovirus infected Sf9 cells using Poly (4:1 Glu, Tyr) as substrate incubated for 60 mins in presence of ATP by ADP-Glo luminescent assay
The next experiment has as its system NCI-H1975. Put plainly: Antiproliferative activity against human NCI-H1975 cells overexpressing c-Met and EGFR assessed as reduction in cell viability incubated for 72 hrs by MTT assay. The format is functional, cell-based. The settings on record: NCI-H1975, 72 h.
Another experiment concerns PC-9. Description: Antiproliferative activity against human PC-9 cells overexpressing c-Met and EGFR assessed as reduction in cell viability incubated for 72 hrs by MTT assay. The format is functional, cell-based. The conditions noted are these: PC-9, 72 h.

As to `C/C=C/C(=O)Nc1cc2c(Oc3ccc(NC(=O)CCCc4ccc(C)cc4)cc3F)ncnc2cc1OC`, the IC50 in experiment [1] is greater than 10 µM; in experiment [2], 0.531 µM; with A549, 4.56 µM; in experiment [3] it was 7.65 µM; with NCI-H1975 it was 9.49 µM; in the experiment on PC-9, 8.4 µM.

`C=CC(=O)Nc1cc2c(Oc3ccc(NC(=O)NCCC4CCCCC4)cc3F)ncnc2cc1OC`: the IC50 was found to be 1.39 µM in experiment [1]; 0.088 µM in experiment [2]; 1.57 µM in the experiment on A549; 1.28 µM in experiment [3]; 4.26 µM in the experiment with NCI-H1975; 1.68 µM in the experiment with PC-9.

Regarding `COc1ccc(CCCC(=O)Nc2ccc(Oc3ncnc4cc(OC)c(NC(=O)CCC(C)C)cc34)c(F)c2)cc1`, the IC50 is greater than 10 µM in experiment [1]; greater than 10 µM in experiment [2]; greater than 50 µM in the experiment with A549; greater than 10 µM in experiment [3]; 10.5 µM with NCI-H1975; greater than 50 µM with PC-9.

For the molecule `CCCC(=O)Nc1cc2c(Oc3ccc(NC(=O)CCCc4ccccc4)cc3F)ncnc2cc1OC`, the 50% inhibitory concentration (IC50) in experiment [1] came out at 4.65 µM; in experiment [2], 0.316 µM; in the experiment with A549, 7.66 µM; in experiment [3] it was 2.65 µM; in the experiment with NCI-H1975 it was 4.96 µM; with PC-9 it was 9.31 µM.

Take `CCC(=O)Nc1cc2c(Oc3ccc(NC(=O)c4sc(-c5ccccc5)nc4C)cc3F)cccc2cc1OC`: the 50% inhibitory concentration (IC50) was greater than 10 µM in experiment [1]; 0.0706 µM in experiment [2]; 2.35 µM in the experiment on A549; 3.9 µM in experiment [3]; 3.56 µM with NCI-H1975; 2.94 µM in the experiment on PC-9.

As for `CCCC(=O)Nc1cc2c(Oc3ccc(NC(=O)c4c(-c5c(Cl)cccc5Cl)noc4C)cc3F)cccc2cc1OC`, the concentration for half-maximal inhibition (IC50) in experiment [1] was greater than 10 µM; in experiment [2] it was 5.93 µM; with A549, greater than 50 µM; in experiment [3], greater than 10 µM; with NCI-H1975 it was greater than 50 µM; with PC-9 it was greater than 50 µM.

With `C=CC(=O)Nc1cc2c(Oc3ccc(NC(=O)CCCc4ccccc4)cc3F)ncnc2cc1OC`, the IC50 in experiment [1] is 0.497 µM; in experiment [2], 0.658 µM; in the experiment on A549, 2.25 µM; in experiment [3], 0.387 µM; in the experiment with NCI-H1975, 1.34 µM; in the experiment on PC-9, 2.46 µM.

Consider `CCC(=O)Nc1cc2c(Oc3ccc(NC(=O)NCCC4CCCCC4)cc3F)ncnc2cc1OC`, for which the IC50 in experiment [1] is greater than 10 µM; in experiment [2], 0.143 µM; in the experiment with A549, 2.43 µM; in experiment [3] it was 4.69 µM; in the experiment with NCI-H1975 it was 2.94 µM; in the experiment with PC-9, greater than 50 µM.

Take `CCCCC(=O)Nc1cc2c(Oc3ccc(NC(=O)CCCc4ccccc4)cc3F)ncnc2cc1OC`: the concentration for half-maximal inhibition (IC50) is greater than 10 µM in experiment [1]; 0.605 µM in experiment [2]; 7.15 µM with A549; greater than 10 µM in experiment [3]; 8.39 µM with NCI-H1975; 8.84 µM with PC-9.

On to `CCCC(=O)Nc1cc2c(Oc3ccc(NC(=O)CCCc4ccc(OC)cc4)cc3F)ncnc2cc1OC`, for which the IC50 is 8.96 µM in experiment [1]; 0.607 µM in experiment [2]; 7.74 µM in the experiment on A549; 7.64 µM in experiment [3]; 16.2 µM with NCI-H1975; greater than 50 µM in the experiment on PC-9.

With `C=CC(=O)Nc1cc2c(Oc3ccc(NC(=O)NCCc4ccc(OC)c(OC)c4)cc3F)ncnc2cc1OC`, the half-maximal inhibitory concentration (IC50) in experiment [1] is 4.18 µM; in experiment [2] it was 0.114 µM; in the experiment on A549 it was 6.7 µM; in experiment [3], 2.35 µM; in the experiment with NCI-H1975 it was 11.4 µM; in the experiment on PC-9 it was 2.48 µM.

For the molecule `C/C=C/C(=O)Nc1cc2c(Oc3ccc(NC(=O)CCCc4ccccc4)cc3F)ncnc2cc1OC`, the IC50 in experiment [1] is 3.54 µM; in experiment [2], 0.465 µM; in the experiment on A549, 5.41 µM; in experiment [3] it was 2.89 µM; in the experiment on NCI-H1975, 4.65 µM; in the experiment on PC-9, 5.78 µM.

As for `C=CC(=O)Nc1cc2c(Oc3ccc(NC(=O)c4sc(-c5ccccc5)nc4C)cc3F)cccc2cc1OC`, the 50% inhibitory concentration (IC50) in experiment [1] amounted to 0.518 µM; in experiment [2], 0.0386 µM; in the experiment on A549, 1.94 µM; in experiment [3] it was 0.173 µM; in the experiment on NCI-H1975, 2.4 µM; with PC-9, 2.33 µM.

Turning to `CCCC(=O)Nc1cc2c(Oc3ccc(NC(=O)n4c(=O)c(-c5ccccc5)c(C)n4C)cc3F)cccc2cc1OC`, the IC50 in experiment [1] is greater than 10 µM; in experiment [2] it was 0.00411 µM; with A549 it was 10.2 µM; in experiment [3], 4.21 µM; in the experiment on NCI-H1975, greater than 50 µM; in the experiment with PC-9 it was greater than 50 µM.

For the molecule `CCC(=O)Nc1cc2c(Oc3ccc(NC(=O)CCCc4ccccc4)cc3F)ncnc2cc1OC`, the half-inhibitory concentration (IC50) was 2.27 µM in experiment [1]; 0.444 µM in experiment [2]; 7.03 µM with A549; 1.44 µM in experiment [3]; 3.98 µM with NCI-H1975; 2.6 µM with PC-9.

As for `CCCC(=O)Nc1cc2c(Oc3ccc(NC(=O)CCCc4ccc(C)cc4)cc3F)ncnc2cc1OC`, the IC50 in experiment [1] is greater than 10 µM; in experiment [2], 0.678 µM; with A549, 14 µM; in experiment [3] it was greater than 10 µM; with NCI-H1975, 14.2 µM; in the experiment on PC-9, 28.9 µM.

In the case of `CCC(=O)Nc1cc2c(Oc3ccc(NC(=O)CCCc4ccc(F)cc4)cc3F)ncnc2cc1OC`, the IC50 worked out at 5.31 µM in experiment [1]; 0.354 µM in experiment [2]; 3.68 µM in the experiment on A549; 6.87 µM in experiment [3]; 1.31 µM in the experiment with NCI-H1975; 3.1 µM in the experiment with PC-9.

Consider `CCC(=O)Nc1cc2c(Oc3ccc(NC(=O)NCCc4csc(Br)c4)cc3F)ncnc2cc1OC`, for which the concentration for half-maximal inhibition (IC50) is greater than 10 µM in experiment [1]; 0.247 µM in experiment [2]; 8.42 µM in the experiment with A549; greater than 10 µM in experiment [3]; 11.1 µM in the experiment with NCI-H1975; 4.97 µM with PC-9.

For `C=CC(=O)Nc1cc2c(Oc3ccc(NC(=O)c4c(-c5c(Cl)cccc5Cl)noc4C)cc3F)cccc2cc1OC`, the half-inhibitory concentration (IC50) turned out to be 1.77 µM in experiment [2], 4.57 µM with A549, 4.9 µM with NCI-H1975 and 6.73 µM in the experiment on PC-9.

For `CCC(=O)Nc1cc2c(Oc3ccc(NC(=O)n4c(=O)c(-c5ccccc5)c(C)n4C)cc3F)cccc2cc1OC`, the IC50 was greater than 10 µM in experiment [1]; 0.00102 µM in experiment [2]; 8.42 µM in the experiment on A549; greater than 10 µM in experiment [3]; 22.2 µM in the experiment with NCI-H1975; 1.06 µM with PC-9.

As to `COc1cc2ncnc(Oc3ccc(NC(=O)CCCc4ccc(F)cc4)cc3F)c2cc1NC(=O)CCC(C)C`, the IC50 in experiment [1] is greater than 10 µM; in experiment [2], 0.712 µM; in the experiment on A549, greater than 50 µM; in experiment [3] it was greater than 10 µM; in the experiment with NCI-H1975, 12 µM; in the experiment on PC-9, greater than 50 µM.

As to `CCC(=O)Nc1cc2c(Oc3ccc(NC(=O)CCCc4ccc(C)cc4)cc3F)ncnc2cc1OC`, the 50% inhibitory concentration (IC50) was greater than 10 µM in experiment [1]; 1.18 µM in experiment [2]; 3.29 µM with A549; 8.43 µM in experiment [3]; 19.1 µM in the experiment on NCI-H1975; 7.84 µM in the experiment on PC-9.

On to `C=CC(=O)Nc1cc2c(Oc3ccc(NC(=O)CCCc4ccsc4)cc3F)ncnc2cc1OC`, for which the IC50 in experiment [1] is greater than 10 µM; in experiment [2] it was 0.693 µM; in the experiment on A549 it was 5.14 µM; in experiment [3] it was greater than 10 µM; in the experiment on NCI-H1975, 4.72 µM; in the experiment with PC-9, 0.99 µM.

Take `C/C=C/C(=O)Nc1cc2c(Oc3ccc(NC(=O)n4c(=O)c(-c5ccccc5)c(C)n4C)cc3F)cccc2cc1OC`: the IC50 in experiment [1] is greater than 10 µM; in experiment [2], 0.015 µM; in the experiment on A549 it was 2.7 µM; in experiment [3] it was 4.83 µM; in the experiment with NCI-H1975, 9.42 µM; in the experiment with PC-9, 8.88 µM.

Regarding `COc1cc2ncnc(Oc3ccc(NC(=O)CCCc4ccccc4)cc3F)c2cc1NC(=O)CCC(C)C`, the IC50 in experiment [1] was greater than 10 µM; in experiment [2], 1.48 µM; with A549 it was greater than 50 µM; in experiment [3] it was greater than 10 µM; in the experiment with NCI-H1975, 13.7 µM; with PC-9 it was 33.7 µM.

For `C=CC(=O)Nc1cc2c(Oc3ccc(NC(=O)CCCc4ccc(OC)cc4)cc3F)ncnc2cc1OC`, the concentration for half-maximal inhibition (IC50) is 0.693 µM in experiment [1]; 0.348 µM in experiment [2]; 3.12 µM with A549; 0.567 µM in experiment [3]; 2.1 µM with NCI-H1975; 19.4 µM in the experiment on PC-9.

Turning to `C=CC(=O)Nc1cc2c(Oc3ccc(NC(=O)NCCc4csc(Br)c4)cc3F)ncnc2cc1OC`, the concentration for half-maximal inhibition (IC50) in experiment [1] is 1.51 µM; in experiment [2], 0.253 µM; with A549 it was 4.08 µM; in experiment [3], 2.07 µM; in the experiment with NCI-H1975, 6.07 µM; with PC-9, 3.64 µM.

For the molecule `CCCC(=O)Nc1cc2c(Oc3ccc(NC(=O)CCCc4ccc(F)cc4)cc3F)ncnc2cc1OC`, the IC50 in experiment [1] was greater than 10 µM; in experiment [2], 0.477 µM; in the experiment on A549, greater than 50 µM; in experiment [3], greater than 10 µM; in the experiment on NCI-H1975, 12 µM; in the experiment with PC-9, greater than 50 µM.

Take `C=CC(=O)Nc1cc2c(Oc3ccc(NC(=O)CCCc4ccc(F)cc4)cc3F)ncnc2cc1OC`: the concentration for half-maximal inhibition (IC50) amounted to 1.07 µM in experiment [1]; 0.355 µM in experiment [2]; 2.07 µM in the experiment on A549; 0.782 µM in experiment [3]; 8.21 µM with NCI-H1975; 4.56 µM with PC-9.

For `CCC(=O)Nc1cc2c(Oc3ccc(NC(=O)c4c(-c5c(Cl)cccc5Cl)noc4C)cc3F)cccc2cc1OC`, the half-inhibitory concentration (IC50) in experiment [1] is greater than 10 µM; in experiment [2], 3.48 µM; with A549, 7.95 µM; in experiment [3], greater than 10 µM; in the experiment on NCI-H1975, 4.91 µM; with PC-9, 5.22 µM.
